{"source": "patent US9144557B2", "about": "“Hematopoietic growth factor mimetic small molecule compounds and their uses” (Ligand Pharmaceuticals Inc., priority 2009, dated 2015)", "system": "UT7/EPO Cell line", "test": "Cell Proliferation Assay (UT7/EPO, ViaLight Plus)", "assay_type": "cell-based, human", "settings": "proliferative effect; compounds at 10 uM; UT7/EPO cells starved of EPO overnight; 72 hours at 37° C.; ViaLight Plus kit", "procedure": "The primary testing for the examplfied compounds was performed in UT7/EPO Cell line. UT7/EPO is human leukemia cell line, obtained from Dr. Norio Komatsu (Blood, Vol 82 (2), pp 456-464, 1993). These cells express endogenous EPO receptor and are dependant upon EPO for growth and proliferation. Briefly, the cells were starved of EPO overnight and plated in 96 or 384 well plates. The compounds were added to the cells at 10 uM concentration. The plates were then incubated at 37° C. for 72 hours. The proliferative effect of the compounds was measured by a commercially available kit from Lonza (ViaLight Plus)."}
{"compound": "O=C(Nc1ccc2[nH]c(-c3ccc(N4CCOCC4)cc3)nc2c1)C(=O)Nc1ccc2nc(-c3ccc(N4CCOCC4)cc3)[nH]c2c1", "note": "[Compound 434, N,N′-bis-(2-(4-Morpholinophenyl)-1H-benzimidazol-5-yl)oxalamide]", "values": [{"measurement": "Activity (%)", "value": 15, "unit": "%"}]}
{"compound": "COc1cccc(Nc2nc3cc(NC(=O)c4ccc5[nH]c(-c6ccc(N(C)C)cc6)nc5c4)ccc3[nH]2)c1", "note": "[Compound 439, N-(2-(3-Methoxyphenyl)amino-1H-benzimidazol-5-yl)-2-(4-dimethylaminophenyl)-1H-benzimidazole-5-carbamide]", "values": [{"measurement": "Activity (%)", "value": 18, "unit": "%"}]}
{"compound": "COc1ccc(-c2nc3cc(NC(=O)c4ccc(NC(=O)c5ccc(N(C)C)cc5)cc4)ccc3[nH]2)cc1", "note": "[Compound 444, 4-(dimethylamino)-N-(4-((2-(4-methoxyphenyl)-1H-benzo[d]imidazol-5-yl)carbamoyl)phenyl)benzamide]", "values": [{"measurement": "Activity (%)", "value": 19, "unit": "%"}]}
{"compound": "CS(=O)(=O)Nc1ccc2[nH]c(-c3ccc(C(=O)Nc4ccc(N5CCOCC5)cc4)cc3)nc2c1", "note": "[Compound 449]", "values": [{"measurement": "Activity (%)", "value": 16, "unit": "%"}]}
{"compound": "CC(=O)Nc1ccc2[nH]c(-c3ccc(C(=O)Nc4ccc(N5CCOCC5)cc4)cc3)nc2c1", "note": "[Compound 454, 4-(5-Acetamino-1H-benzimidazol-2-yl)-N-(4-morpholinophenyl)benzamide]", "values": [{"measurement": "Activity (%)", "value": 16, "unit": "%"}]}
{"compound": "O=C(Nc1ccc(N2CCOCC2)cc1)c1ccc(-c2nc3ccccc3[nH]2)cc1", "note": "[Compound 458, 4-(1H-Benzimidazol-2-yl)-N-(4-morpholinophenyl)benzamide]", "values": [{"measurement": "Activity (%)", "value": 10, "unit": "%"}]}
{"compound": "O=C(CNC(=O)c1ccc(-c2ccc(C(=O)NCC(=O)Nc3ccc(N4CCOCC4)cc3)cc2)cc1)Nc1ccc(N2CCOCC2)cc1", "note": "[Compound 465, N,N′-bis(2-(4-Morpholinophenylamino)-2-oxoethyl)biphenyl-4,4′-dicarboxamide]", "values": [{"measurement": "Activity (%)", "value": 18, "unit": "%"}]}
{"compound": "COc1ccc(-c2cc(NC(=O)c3ccc(C(=O)Nc4cc(-c5ccc(OC)cc5)[nH]n4)cc3)n[nH]2)cc1", "note": "[Compound 473, N,N′-bis(5-(4-Methoxyphenyl)-1H-pyrazol-3-yl)terephthalamide]", "values": [{"measurement": "Activity (%)", "value": 11, "unit": "%"}]}
{"compound": "O=C(Nc1ccc2[nH]c(-c3ccc(-c4ccccn4)cc3)nc2c1)c1ccccc1", "note": "[Compound 479, N-(2-(4-(Pyridin-2-yl)phenyl)-1H-benzimidazol-5-yl)benzamide]", "values": [{"measurement": "Activity (%)", "value": 15, "unit": "%"}]}
{"compound": "CCNc1ccc(C(=O)c2ccc(NC(=O)c3ccc(N4CCOCC4)cc3)cc2)cc1", "note": "[Compound 484, N-(4-(4-Ethylaminobenzoyl)phenyl)-4-morpholinobenzamide]", "values": [{"measurement": "Activity (%)", "value": 16, "unit": "%"}]}
{"compound": "O=C(Nc1ccc(C(=O)c2ccc(NC(=O)c3ccsc3)cc2)cc1)c1ccc(N2CCOCC2)cc1", "note": "[Compound 490, N-(4-(4-(3-Thienylcarboxamido)benzoyl)phenyl)-4-morpholinobenzamide]", "values": [{"measurement": "Activity (%)", "value": 15, "unit": "%"}]}
{"compound": "Cc1cc(C(=O)Nc2ccc(C(=O)c3ccc(NC(=O)c4ccc(N5CCOCC5)cc4)cc3)cc2)[nH]n1", "note": "[Compound 500, 3-Methyl-N-(4-(4-(4-morpholinobenzamido)benzoyl)phenyl)-1H-pyrazole-5-carboxamide]", "values": [{"measurement": "Activity (%)", "value": 19, "unit": "%"}]}
{"compound": "O=C(Nc1ccc2c(cnn2-c2ccc(NC(=O)c3ccc4cc[nH]c4c3)cc2)c1)c1ccc(N2CCC(O)CC2)cc1", "note": "[Compound 510, N-(4-(5-(4-(4-Hydroxypiperidin-1-yl)benzamido)-1H-indazol-1-yl)phenyl)-1H-indole-6-carboxamide]", "values": [{"measurement": "Activity (%)", "value": 17, "unit": "%"}]}
{"compound": "O=C(Nc1ccc2c(cnn2-c2ccc(NCC3CC3)cc2)c1)c1ccc(N2CCOCC2)cc1", "note": "[Compound 530]", "values": [{"measurement": "Activity (%)", "value": 11, "unit": "%"}]}
{"compound": "O=C(Nc1ccc2nn(-c3ccc([N+](=O)[O-])cc3)cc2c1)c1ccc(N2CCOCC2)cc1", "note": "[Compound 540, 4-Morpholino-N-(2-(4-nitrophenyl)-2H-indazol-5-yl)benzamide]", "values": [{"measurement": "Activity (%)", "value": 17, "unit": "%"}]}
{"compound": "CN1CCN(C(=O)Nc2ccc(-n3ncc4cc(NC(=O)c5ccc(N6CCOCC6)cc5)ccc43)cc2)CC1", "note": "[Compound 550, 4-Methyl-N-(4-(5-(4-morpholinobenzamido)-1H-indazol-1-yl)phenyl)piperazine-1-carboxamide]", "values": [{"measurement": "Activity (%)", "value": 9, "unit": "%"}]}
{"compound": "O=C(Nc1ccc2c(c1)ncn2-c1ccc(NC(=O)C2CC2)cc1)c1ccc(N2CCC(O)CC2)cc1", "note": "[Compound 560, N-(4-(5-(4-(4-Hydroxypiperidin-1-yl)benzamido)-1H-benzimidazol-1-yl)phenyl)cyclopropylcarboxamide]", "values": [{"measurement": "Activity (%)", "value": 14, "unit": "%"}]}
{"compound": "O=C(Nc1ccc(Nc2ccc(NC(=O)c3cccc(O)c3)cc2)cc1)c1cccc(O)c1", "note": "[Compound 570, N,N′-(4,4′-Azanediylbis(4,1-phenylene))bis(3-hydroxybenzamide)]", "values": [{"measurement": "Activity (%)", "value": 11, "unit": "%"}]}
{"compound": "Nc1ccc(C(=O)Nc2ccc(Nc3ccc(NC(=O)c4ccc(N)cc4)cc3)cc2)cc1", "note": "[Compound 580, N,N′-(4,4′-Azanediylbis(4,1-phenylene))bis(4-aminobenzamide)]", "values": [{"measurement": "Activity (%)", "value": 16, "unit": "%"}]}
{"compound": "O=C(Nc1ccc(Nc2ccc(NC(=O)c3ccc4[nH]cnc4c3)cc2)cc1)c1ccc2[nH]cnc2c1", "note": "[Compound 590, N,N′-(4,4′-Azanediylbis(4,1-phenylene))bis(1H-benzimidazole-5-carboxamide)]", "values": [{"measurement": "Activity (%)", "value": 12, "unit": "%"}]}
{"compound": "O=C(Nc1ccc(C(=O)c2ccc(NC(=O)c3ccno3)cc2)cc1)c1ccc(N2CCOCC2)cc1", "note": "[Compound 600, 4-Morpholino-N-(4-(4-(isoxazole-5-carboxamido)benzoyl)phenyl)benzamide]", "values": [{"measurement": "Activity (%)", "value": 11, "unit": "%"}]}
{"compound": "O=C(Nc1ccc(C(=O)c2ccc(NC(=O)c3c[nH]nn3)cc2)cc1)c1ccc(N2CCOCC2)cc1", "note": "[Compound 610, 4-Morpholino-N-(4-(4-(1,2,3-triazole-4-carboxamido)benzoyl)phenyl)benzamide]", "values": [{"measurement": "Activity (%)", "value": 14, "unit": "%"}]}
{"compound": "Cc1cc(C(=O)Nc2ccc(C(=O)c3ccc(NC(=O)c4ccc(N5CCOCC5)cc4)cc3)cc2)cc(Cl)n1", "note": "[Compound 620, 4-Morpholino-N-(4-(4-(2-chloro-6-methylpyridine-4-carboxamido)benzoyl)phenyl)benzamide]", "values": [{"measurement": "Activity (%)", "value": 18, "unit": "%"}]}
{"compound": "O=C(Nc1ccc(N2CCOCC2)cc1)c1ccc(-c2nc3ccc(OCc4ccccc4)cc3[nH]2)cc1", "note": "[Compound 639, 4-(6-Benzyloxy-1H-benzo[d]imidazol-2-yl)-N-(4-morpholinophenyl)benzamide]", "values": [{"measurement": "Activity (%)", "value": 15, "unit": "%"}]}
{"compound": "O=C(Nc1ccc2cc[nH]c2c1)c1ccc(-c2nc3ccc(-c4cccnc4)cc3[nH]2)cc1", "note": "[Compound 650, N-(1H-indol-6-yl)-4-(6-(pyridin-3-yl)-1H-benzo[d]imidazol-2-yl)-benzamide]", "values": [{"measurement": "Activity (%)", "value": 13, "unit": "%"}]}
{"compound": "Cc1noc(COc2ccc3nc(-c4ccc(C(=O)Nc5ccc6cc[nH]c6c5)cc4)[nH]c3c2)n1", "note": "[Compound 660, 4-(6-((3-Methyl-1,2,4-oxadiazol-5-yl)methoxy)-1H-benzo[d]imidazol-2-yl)-N-(1H-indol-6-yl)benzamide]", "values": [{"measurement": "Activity (%)", "value": 14, "unit": "%"}]}
{"compound": "COCCOc1ccc2nc(-c3ccc(C(=O)Nc4ccc(N5CCC(O)CC5)cc4)cc3)[nH]c2c1", "note": "[Compound 670, N-(4-(4-Hydroxypiperidin-1-yl)phenyl)-4-(6-(2-methoxyethoxy)-1H-benzo[d]imidazol-2-yl)benzamide]", "values": [{"measurement": "Activity (%)", "value": 8, "unit": "%"}]}
{"compound": "O=C(C1CC1)N1CCN(c2ccc(-c3nc4ccc(-c5ccc(O)cc5)cc4[nH]3)cc2)CC1", "note": "[Compound 680, Cyclopropyl(4-(4-(6-(4-hydroxyphenyl)-1H-benzo[d]imidazol-2-yl)phenyl)piperazin-1-yl)methanone]", "values": [{"measurement": "Activity (%)", "value": 10, "unit": "%"}]}
{"compound": "O=C(Nc1ccc(C(=O)c2ccc(NC(=O)c3cccc4cc[nH]c34)cc2)cc1)c1ccc(N2CCC(O)CC2)cc1", "note": "[Compound 690, N-(4-(4-(4-(4-Hydroxypiperidin-1-yl)benzamido)benzoyl)phenyl)-1H-indolyl-7-carboxamide]", "values": [{"measurement": "Activity (%)", "value": 16, "unit": "%"}]}
{"compound": "Cn1nccc1C(=O)Nc1ccc(C(=O)c2ccc(NC(=O)c3ccc(N4CCC(O)CC4)cc3)cc2)cc1", "note": "[Compound 720, N-(4-(4-(4-(4-Hydroxypiperidin-1-yl)benzamido)benzoyl)phenyl)-1-methyl-1H-pyrazole-5-carboxamide]", "values": [{"measurement": "Activity (%)", "value": 16, "unit": "%"}]}
{"compound": "Cn1cccc1C(=O)Nc1ccc(C(=O)c2ccc(NC(=O)c3ccc(N4CCC(O)CC4)cc3Cl)cc2)cc1", "note": "[Compound 730, N-(4-(4-(2-Chloro-4-(4-hydroxypiperidin-1-yl)benzamido)benzoyl)phenyl)-1-methyl-1H-pyrrole-2-carboxamide]", "values": [{"measurement": "Activity (%)", "value": 18, "unit": "%"}]}
{"compound": "Cn1cccc1C(=O)Nc1ccc(N(C(=O)c2cccn2C)c2ccc(NC(=O)c3ccc(N4CCC(O)CC4)cc3)cc2)cc1", "note": "[Compound 745]", "values": [{"measurement": "Activity (%)", "value": 17, "unit": "%"}]}
{"compound": "Cc1ccc(C(=O)Nc2ccc(Nc3ccc(NC(=O)c4ccc(N5CCC(O)CC5)cc4)cc3)c(F)c2)n1C", "note": "[Compound 760, N-(3-Fluoro-4-((4-(4-(4-hydroxypiperidin-1-yl)benzamido)phenyl)amino)phenyl)-1,5-dimethyl-1H-pyrrole-2-carboxamide]", "values": [{"measurement": "Activity (%)", "value": 21, "unit": "%"}]}
{"compound": "O=C(Nc1ccc(Nc2ccc(NC(=O)c3ccc4c(ccn4CCO)c3)cc2)cc1)c1ccc(N2CCC(O)CC2)cc1", "note": "[Compound 775]", "values": [{"measurement": "Activity (%)", "value": 22, "unit": "%"}]}
{"compound": "Cc1cc(C(=O)Nc2ccc(Nc3ccc(NC(=O)c4ccc(N5CCC(O)CC5)cc4)cc3)cc2)c(C)[nH]1", "note": "[Compound 790]", "values": [{"measurement": "Activity (%)", "value": 18, "unit": "%"}]}
{"compound": "Cn1cccc1C(=O)Nc1ccc(Nc2ccc(NC(=O)c3ccc(N4CCC(CO)CC4)cc3)cc2)cc1", "note": "[Compound 800, N-(4-((4-(4-(4-Hydroxymethylpiperidin-1-yl)benzamido)phenyl)amino)phenyl)-1-methyl-1H-pyrrole-2-carboxamide]", "values": [{"measurement": "Activity (%)", "value": 23, "unit": "%"}]}
